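Tested at 5 concentrations; 48 h exposure; 96-well plates; endpoints linearly interpolated, else capped at highest concentration. TGI: total growth inhibition.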
Assays:
Test in all cases: growth of human tumour cells (NCI), 48 h
[1] = test system: 786-0 renal
[2] = test system: A498 renal
[3] = test system: A549 NSCLC
[4] = test system: ACHN renal
[5] = test system: BT-549 breast
[6] = test system: CAKI-1 renal
[7] = test system: COLO 205 colon
[8] = test system: DU-145 prostate
[9] = test system: EKVX NSCLC
[10] = test system: HCC-2998 colon
[11] = test system: HCT-116 colon
[12] = test system: HCT-15 colon
[13] = test system: HL-60(TB) leukemia
[14] = test system: HOP-62 NSCLC
[15] = test system: HOP-92 NSCLC
[16] = test system: HS 578T breast
[17] = test system: HT29 colon
[18] = test system: K-562 leukemia
[19] = test system: KM12 colon
[20] = test system: LOX IMVI melanoma
[21] = test system: M14 melanoma
[22] = test system: MALME-3M melanoma
[23] = test system: MCF7 breast
[24] = test system: MDA-MB-231 breast
[25] = test system: MDA-MB-435
[26] = test system: MDA-N
[27] = test system: MOLT-4 leukemia
[28] = test system: NCI-H226 lung
[29] = test system: NCI-H23 lung
[30] = test system: NCI-H460 lung
[31] = test system: NCI-H522 lung
[32] = test system: NCI/ADR-RES ovarian
[33] = test system: OVCAR-3 ovarian
[34] = test system: OVCAR-4 ovarian
[35] = test system: OVCAR-5 ovarian
[36] = test system: OVCAR-8 ovarian
[37] = test system: RPMI-8226 leukemia
[38] = test system: RXF 393 renal
[39] = test system: SF-268 CNS
[40] = test system: SF-295 CNS
[41] = test system: SF-539 CNS
[42] = test system: SK-MEL-2 melanoma
[43] = test system: SK-MEL-28 melanoma
[44] = test system: SK-MEL-5 melanoma
[45] = test system: SK-OV-3 ovarian
[46] = test system: SN12C renal
[47] = test system: SNB-19 CNS
[48] = test system: SR leukemia
[49] = test system: SW-620 colon
[50] = test system: T-47D breast
[51] = test system: TK-10 renal
[52] = test system: U251 CNS
[53] = test system: UACC-257 melanoma
[54] = test system: UACC-62 melanoma
[55] = test system: UO-31 renal
[56] = test system: CCRF-CEM leukemia
[57] = test system: IGROV1 ovarian
[58] = test system: PC-3 prostate
[59] = test system: SNB-75 CNS

Measured: TGI

COc1cc(/C=C2/SC(c3ccccc3)N(c3ccc(NC(C)=O)cc3)C2=O)cc(OC)c1OC (configuration not stated)
not listed: [56] | [57] | [58] | [59]
> 100 µM: all other assays above

CC(C)(C)OC(=O)CN1CCNCCNCC1
not listed: [10] | [13]
> 100 µM: all other assays above

— PubChem BioAssay (NCI)
